According to ChEMBL document CHEMBL1146612 (Bioorg Med Chem Lett, 2003):

How the values were obtained:
Histamine H3 receptor = Histamine H3 receptor (Cavia porcellus, UniProt Q9JI35); assay: Binding affinity against H3 receptor in guinea pig brain using [3H]N-alpha-methyl histamine as radioligand
[1] = target: Histamine H1 receptor (Rattus norvegicus) (UniProt P31390); assay: Ability to displace [3H]pyrilamine from histamine H1 receptor in male Sprague-Dawley rat brain membranes at 1 ug/mL; format: tissue-based; conditions: Membrane
Histamine H1 receptor (Rattus norvegicus), sequence (P31390 whole entry): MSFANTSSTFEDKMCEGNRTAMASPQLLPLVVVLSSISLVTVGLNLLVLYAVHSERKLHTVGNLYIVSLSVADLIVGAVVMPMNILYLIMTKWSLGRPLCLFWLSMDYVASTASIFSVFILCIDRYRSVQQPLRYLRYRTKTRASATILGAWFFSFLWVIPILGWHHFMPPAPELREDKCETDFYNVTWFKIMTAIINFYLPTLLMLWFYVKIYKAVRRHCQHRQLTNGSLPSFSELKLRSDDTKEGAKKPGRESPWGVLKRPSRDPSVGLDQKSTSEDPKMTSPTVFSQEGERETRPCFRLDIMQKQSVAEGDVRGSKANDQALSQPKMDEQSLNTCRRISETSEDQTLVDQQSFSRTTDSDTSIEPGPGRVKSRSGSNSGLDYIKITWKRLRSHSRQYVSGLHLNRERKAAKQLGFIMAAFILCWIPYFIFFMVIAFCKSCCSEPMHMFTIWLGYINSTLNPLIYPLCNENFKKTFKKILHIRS

Histamine H1 receptor = Histamine H1 receptor (Rattus norvegicus, UniProt P31390); assay: Ability to displace [3H]pyrilamine from histamine H1 receptor in male Sprague-Dawley rat brain membranes; format: tissue-based, Membrane
Histamine H1 receptor, sequence (P31390 whole entry): as above

Histamine H3 receptor, sequence (Q9JI35 whole entry): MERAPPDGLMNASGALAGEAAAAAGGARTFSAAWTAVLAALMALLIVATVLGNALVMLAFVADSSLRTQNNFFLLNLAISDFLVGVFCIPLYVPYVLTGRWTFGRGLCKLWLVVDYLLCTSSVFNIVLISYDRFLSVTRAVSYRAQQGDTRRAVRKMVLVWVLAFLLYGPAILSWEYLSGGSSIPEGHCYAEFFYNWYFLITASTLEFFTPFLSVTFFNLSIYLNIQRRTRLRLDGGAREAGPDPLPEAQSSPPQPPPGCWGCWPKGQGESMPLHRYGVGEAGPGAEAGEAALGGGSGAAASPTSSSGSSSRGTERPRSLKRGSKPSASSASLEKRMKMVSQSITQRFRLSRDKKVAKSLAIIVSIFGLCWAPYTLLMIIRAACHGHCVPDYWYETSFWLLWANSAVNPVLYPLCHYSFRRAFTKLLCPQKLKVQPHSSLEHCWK

O=C(CC(c1ccccn1)c1ccccn1)NCCCCc1c[nH]cn1
Ki (Histamine H3 receptor): 0.001 µM | inhibition [1]: < 50%

c1ccc(C(CCNCCCCc2c[nH]cn2)c2ccccn2)nc1
Ki (Histamine H3 receptor): 0.004 µM | inhibition [1]: < 50%

O=C(CC(c1ccc(Cl)cc1)c1ccccn1)NCCCCc1c[nH]cn1 (stereo not given)
Ki (Histamine H3 receptor): 0.001 µM | inhibition [1]: < 50%

N=C(CC(c1ccc(Cl)cc1)c1ccccn1)NCCc1c[nH]cn1 (stereo not given)
inhibition [1]: < 50%

CN(CCC(c1ccc(Cl)cc1)c1ccccn1)C(=O)CCc1c[nH]cn1 (stereo not given)
inhibition [1]: < 50%

CN(CCc1c[nH]cn1)C(=O)CC(c1ccc(Cl)cc1)c1ccccn1 (stereo not given)
inhibition [1]: < 50%

CN(CCCCc1c[nH]cn1)C(=O)CC(c1ccc(Cl)cc1)c1ccccn1 (stereo not given)
Ki (Histamine H3 receptor): 0.007 µM | inhibition [1]: < 50%

Clc1ccc(C(CCNCCCc2c[nH]cn2)c2ccccn2)cc1 (stereo not given)
inhibition [1]: < 50%

O=C(CC(c1ccc(Cl)cc1)c1ccccn1)NCCc1c[nH]cn1 (stereo not given)
inhibition [1]: < 50%

O=C(CCc1c[nH]cn1)NCCC(c1ccc(Cl)cc1)c1ccccn1 (stereo not given)
inhibition [1]: < 50%

Clc1ccc(C(CCNCCCCCc2cnc[nH]2)c2ccccn2)cc1 (stereo not given)
Ki (Histamine H3 receptor): 0.033 µM | Ki (Histamine H1 receptor): 0.039 µM

O=C(NCCCCc1cnc[nH]1)NCCC(c1ccc(Cl)cc1)c1ccccn1 (stereo not given)
Ki (Histamine H3 receptor): 0.023 µM | Ki (Histamine H1 receptor): 0.92 µM

CN(CCCCCc1c[nH]cn1)CCC(c1ccc(Cl)cc1)c1ccccn1 (stereo not given)
Ki (Histamine H3 receptor): 0.05 µM | Ki (Histamine H1 receptor): 0.006 µM
